Results taken from patent US11111245B2, “Derivatives of N-cycloalkyl/heterocycloalkyl-4-(imidazo[1,2-a]pyridine)pyrimidin-2-amine as therapeutic agents” (Aucentra Therapeutics Pty Ltd, priority 2017, dated 2021).

What was measured:
[1] = test system: leukemia cell lines; assay: Resazurin cell viability assay on leukemia cell lines (72 h growth inhibition, GI50); type: cell-based; settings: Homo sapiens, MV4-11 cells
Description: Compounds from Example 1 were subjected to a standard MTT (3-(4,5-dimethylthiazol-2-yl)-2,5-diphenyltetrazolium bromide) and resazurin assays on solid tumour cell lines and leukemia cell lines, respectively, as previously reported (Wang S et al., J Med Chem 47:1662-1675, 2004 and Diab S. et al. CheMedChem 9:962-972, 2014). Compound concentrations required to inhibit 50% of cell growth (GI50) were calculated using non-linear regression analysis.

[2] = molecular target: T1, CDKs and other kinases (Homo sapiens, UniProt P50613); assay: Radiometric kinase assay (Eurofins Pharma Discovery or Reaction Biology Corporation Kinase Profiler); type: biochemical; settings: CDK7H; for remaining activity at 10 µM: compound at 10 μM, read-out: residual activity (%) at 10 μM CDK7H; for Ki: read-out: CDK inhibition, Ki (μM) CDK7H
T1 construct: other: CDK7H; residual activity (%) at 10 μM CDK7H; compound at 10 μM
Description: (§1) Eurofins Pharma Discovery or Reaction Biology Corporation Kinase Profiler services were used to measure inhibition of CDKs and other kinases by radiometric assay. Inhibition of CDK4/D1, CDK6/D3 and CDK9/T1 were also determined in-house using ADP Glo Kinase assays (Promega Corporation, Madison, USA). Briefly, the kinase reaction for CDK4/D1 and CDK6/D3 was performed with kinase reaction buffer ([…] Tris base pH 7.5, 20 mM MgCl2, 0.4 mM DTT), 0.1 mg/ml BSA and RB-CTF substrate (retinoblastoma protein 1 C-terminal fraction). For CDK9/CyclinT1, the kinase reaction was performed with standard assay buffer and Kinase Dilution Buffer and RBER-IRStide substrate. Serial dilutions of 1:3 were prepared for test compounds for 10 concentrations (from 10 μM to 0.5 nM). The kinase reactions were started by addition of ATP, incubated for 40 min at 37° C. and then stopped by adding 10 μL of ADP Glo reagent. After incubation at room temperature in the dark for 40 min, 20 μL of kinase detection reagent was added per well and incubated for 40 min. Luminescence was measured using an EnVision Multilabel plate reader (PerkinElmer, Buckinghamshire, UK). Positive and negative controls were performed in the presence and absence of CDK kinases, respectively. Half-maximal inhibition (IC50) values were calculated using a 4-parameter logistic non-linear regression model with Graphpad prism (Version 6.0). Apparent inhibition constants (Ki) values were calculated from Km (ATP) and IC50 values for the respective kinases.

[3] = molecular target: T2, CDKs and other kinases (Homo sapiens, UniProt P06493); assay: as above; type: biochemical; settings: CDK1B; for remaining activity at 10 µM: compound at 10 μM, read-out: residual activity (%) at 10 μM CDK1B; for Ki: read-out: CDK inhibition, Ki (μM) CDK1B
T2 construct: other: CDK1B; residual activity (%) at 10 μM CDK1B; compound at 10 μM
Description: as §1

[4] = molecular target: T3, CDKs and other kinases (Homo sapiens, UniProt P24941); assay: as above; type: biochemical; settings: CDK2A; for remaining activity at 10 µM: compound at 10 μM, read-out: residual activity (%) at 10 μM CDK2A; for Ki: read-out: CDK inhibition, Ki (μM) CDK2A
T3 construct: other: CDK2A; residual activity (%) at 10 μM CDK2A; compound at 10 μM
Description: as §1

[5] = molecular target: CDK9/T1 (Homo sapiens, UniProt P50750); assay: ADP Glo Kinase assay CDK9/T1; type: biochemical; settings: CDK9T1; read-out: CDK inhibition, Ki (μM) CDK9T1
Description: as §1

[6] = molecular target: CDK4/D1 (Homo sapiens, UniProt P11802); assay: ADP Glo Kinase assay CDK4/D1; type: biochemical; settings: CDK4D1; compound at 10 μM; read-out: residual activity (%) at 10 μM CDK4D1
Description: as §1

T1 sequence (P50613 whole entry): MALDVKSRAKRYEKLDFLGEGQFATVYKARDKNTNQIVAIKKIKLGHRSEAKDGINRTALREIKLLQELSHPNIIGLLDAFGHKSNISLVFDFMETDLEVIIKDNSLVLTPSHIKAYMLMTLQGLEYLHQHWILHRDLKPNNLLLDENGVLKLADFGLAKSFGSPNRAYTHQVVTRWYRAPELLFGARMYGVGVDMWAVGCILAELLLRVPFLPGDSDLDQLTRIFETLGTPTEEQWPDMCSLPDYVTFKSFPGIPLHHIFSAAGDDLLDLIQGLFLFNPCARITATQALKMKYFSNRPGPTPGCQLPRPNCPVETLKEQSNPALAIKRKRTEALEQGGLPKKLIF
CDK9/T1, sequence (P50750 whole entry): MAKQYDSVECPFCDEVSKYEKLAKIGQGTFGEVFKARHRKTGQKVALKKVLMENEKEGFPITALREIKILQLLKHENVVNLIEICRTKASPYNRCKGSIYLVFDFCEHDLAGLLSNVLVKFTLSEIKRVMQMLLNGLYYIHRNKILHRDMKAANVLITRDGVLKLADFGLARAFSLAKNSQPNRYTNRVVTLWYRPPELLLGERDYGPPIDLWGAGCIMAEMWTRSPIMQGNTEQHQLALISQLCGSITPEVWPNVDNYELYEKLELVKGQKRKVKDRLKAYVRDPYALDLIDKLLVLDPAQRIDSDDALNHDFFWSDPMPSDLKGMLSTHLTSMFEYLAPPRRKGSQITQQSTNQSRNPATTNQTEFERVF
CDK9/T1, sequence (O60563 whole entry partner): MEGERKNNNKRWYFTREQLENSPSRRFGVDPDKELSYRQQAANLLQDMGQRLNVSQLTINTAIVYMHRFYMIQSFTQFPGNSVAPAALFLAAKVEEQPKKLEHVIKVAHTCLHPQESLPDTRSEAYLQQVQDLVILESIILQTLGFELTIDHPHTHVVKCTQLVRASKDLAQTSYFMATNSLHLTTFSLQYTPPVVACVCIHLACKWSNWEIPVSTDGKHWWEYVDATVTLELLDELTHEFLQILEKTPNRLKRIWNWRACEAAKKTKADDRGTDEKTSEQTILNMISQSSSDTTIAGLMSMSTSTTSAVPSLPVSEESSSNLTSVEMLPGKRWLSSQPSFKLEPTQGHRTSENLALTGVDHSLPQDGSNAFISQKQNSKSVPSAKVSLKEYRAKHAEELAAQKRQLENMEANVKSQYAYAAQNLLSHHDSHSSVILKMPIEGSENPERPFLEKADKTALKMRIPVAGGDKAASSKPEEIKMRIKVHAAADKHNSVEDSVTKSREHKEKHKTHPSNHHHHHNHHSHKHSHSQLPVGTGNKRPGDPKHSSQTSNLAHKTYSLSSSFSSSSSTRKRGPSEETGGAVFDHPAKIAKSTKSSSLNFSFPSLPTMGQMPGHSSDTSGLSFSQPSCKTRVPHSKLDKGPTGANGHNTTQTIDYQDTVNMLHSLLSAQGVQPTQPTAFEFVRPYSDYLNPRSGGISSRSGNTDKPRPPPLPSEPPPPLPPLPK
CDK4/D1, sequence (P11802 whole entry): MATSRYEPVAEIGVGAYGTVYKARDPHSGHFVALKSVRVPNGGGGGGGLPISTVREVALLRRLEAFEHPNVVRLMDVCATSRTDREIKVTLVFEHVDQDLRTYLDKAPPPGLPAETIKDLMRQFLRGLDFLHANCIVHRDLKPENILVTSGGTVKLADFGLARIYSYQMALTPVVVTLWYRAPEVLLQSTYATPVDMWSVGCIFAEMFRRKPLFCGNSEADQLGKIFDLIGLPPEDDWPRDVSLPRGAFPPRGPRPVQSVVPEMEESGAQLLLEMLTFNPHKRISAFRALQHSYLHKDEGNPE
CDK4/D1, sequence (P24385 whole entry partner): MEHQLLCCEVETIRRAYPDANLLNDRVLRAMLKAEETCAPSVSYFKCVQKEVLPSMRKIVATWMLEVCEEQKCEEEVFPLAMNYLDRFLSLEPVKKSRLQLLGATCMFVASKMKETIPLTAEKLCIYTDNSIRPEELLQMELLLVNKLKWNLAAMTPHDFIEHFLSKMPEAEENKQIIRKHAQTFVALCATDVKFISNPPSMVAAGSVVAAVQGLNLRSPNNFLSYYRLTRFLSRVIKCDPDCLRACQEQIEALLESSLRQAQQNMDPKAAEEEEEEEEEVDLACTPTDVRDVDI
T2 sequence (P06493 whole entry): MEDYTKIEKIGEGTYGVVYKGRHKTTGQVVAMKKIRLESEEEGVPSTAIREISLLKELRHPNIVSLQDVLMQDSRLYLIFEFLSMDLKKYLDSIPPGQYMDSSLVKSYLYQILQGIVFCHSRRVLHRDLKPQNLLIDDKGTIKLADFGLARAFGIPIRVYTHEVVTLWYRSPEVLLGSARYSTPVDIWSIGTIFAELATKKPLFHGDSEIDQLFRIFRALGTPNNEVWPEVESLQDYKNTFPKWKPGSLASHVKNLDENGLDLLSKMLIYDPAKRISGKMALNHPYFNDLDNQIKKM

SMILES	GI50 [1]	remaining activity at 10 µM [2]	remaining activity at 10 µM [3]	remaining activity at 10 µM [4]	Ki [5]	remaining activity at 10 µM [6]	Ki [2]	Ki [3]	Ki [4]
CCN[C@H]1CC[C@H](Nc2ncc(C)c(-c3cnc4ccc(-c5ccccc5)cn34)n2)CC1 [Compound 131, (1r,4r)-N^1-Ethyl-N^4-(5-methyl-4-(6-phenylimidazo[1,2-a]pyridin-3-yl)pyrimidin-2-yl)cyclohexane-1,4-diamine]	0.132 ± 0.059 µM	20%	29%	44%	0.32 µM	24%			
CN1CCC(Nc2ncc(F)c(-c3cnc4ccc(-c5ccccc5)cn34)n2)CC1 [Compound 144, 5-Fluoro-N-(1-Methylpiperidin-4-yl)-4-(6-phenylimidazo [1,2-a]pyridin-3-yl)pyrimidin-2-amine]	0.005 ± 0.003 µM			8%	0.138 µM	20%	0.072 µM	0.047 µM	
Cc1cnc(N[C@H]2CC[C@H](NS(C)(=O)=O)CC2)nc1-c1cnc2ccc(Nc3cncnc3)cn12 [Compound 126, N-((1r,4r)-4-((5-Methyl-4-(6-(pyrimidin-5-ylamino)imidazo[1,2-a]pyridin-3-yl)pyrimidin-2-yl)amino)cyclohexyl)methanesulfonamide]	> 5 µM	94%	2%		0.111 µM	14%			0.089 µM
Cc1cnc(N[C@H]2CC[C@@H](N3CCC3)CC2)nc1-c1cnc2ccc(-c3ccccc3)cn12 [Compound 136, N-((1s,4s)-4-(Azetidin-1-yl)cyclohexyl)-5-methyl-4-(6-phenylimidazo[1,2-a]pyridin-3-yl)pyrimidin-2-amine]	0.297 ± 0.001 µM	36%	22%	59%	2.77 µM	48%			
CCN[C@H]1CC[C@@H](Nc2ncc(C)c(-c3cnc4ccc(-c5ccccc5)cn34)n2)CC1 [Compound 132, (1s,4s)-N^1-ethyl-N^4-(5-Methyl-4-(6-phenylimidazo[1,2-a]pyridin-3-yl)pyrimidin-2-yl)cyclohexane-1,4-diamine]	0.012 ± 0.008 µM	40%	25%	23%	1.12 µM	16%			
Cc1cnc(N[C@H]2CC[C@H](N)CC2)nc1-c1cnc2cc(C(F)(F)F)c(-c3ccccc3)cn12 [Compound 150, (1r,4r)-N1-(5-Methyl-4-(6-phenyl-7-(trifluoromethyl)imidazo[1,2-a]pyridin-3-yl)pyrimidin-2-yl)cyclohexane-1,4-diamine]	0.42 ± 0.02 µM		45%	11%	0.149 µM	21%	0.372 µM		
Cc1cnc(N[C@H]2CC[C@H](N(CC(N)=O)CC(N)=O)CC2)nc1-c1cnc2ccc(Nc3cncnc3)cn12 [Compound 154, 2,2′-(((1r,4r)-4-((5-Methyl-4-(6-(pyrimidin-5-ylamino)imidazo[1,2-a]pyridin-3-yl)pyrimidin-2-yl)amino)cyclohexyl)azanediyl)diacetamide]	> 10 µM	37%	14%	7%	0.022 µM	3%			
Cc1cnc(N[C@H]2CC[C@H](NCC(N)=O)CC2)nc1-c1cnc2ccc(Nc3cncnc3)cn12 [Compound 153, 2-(((1r,4r)-4-((5-Methyl-4-(6-(pyrimidin-5-ylamino)imidazo[1,2-a]pyridin-3-yl)pyrimidin-2-yl)amino)cyclohexyl)amino)acetamide]	9.32 ± 0.73 µM	49%		14%	0.01 µM	0%		0.632 µM	
CN1CCC(Nc2ncc(F)c(-c3cnc4ccc(-c5ccc(S(=O)(=O)N(C)C)cc5)cn34)n2)CC1 [Compound 148, 4-(3-(5-Fluoro-2-((1-methylpiperidin-4-yl)amino)pyrimidin-4-yl)imidazo[1,2-a]pyridin-6-yl)-N,N-dimethylbenzenesulfonamide]	0.023 ± 0.007 µM	18%	27%	46%	0.261 µM	70%			
Fc1cnc(N[C@H]2CC[C@H](N3CCC3)CC2)nc1-c1cnc2ccc(-c3ccccc3)cn12 [Compound 138, N-((1r,4r)-4-(Azetidin-1-yl)cyclohexyl)-5-fluoro-4-(6-phenylimidazo[1,2-a]pyridin-3-yl)pyrimidin-2-amine]	< 0.001 µM	0%			0.006 µM	6%		0.076 µM	0.111 µM
COc1cnc(N[C@H]2CC[C@H](N)CC2)nc1-c1cnc2ccc(-c3ccccc3)cn12 [Compound 89, (1r,4r)-N^1-(5-Methoxy-4-(6-phenylimidazo[1,2-a]pyridin-3-yl)pyrimidin-2-yl)cyclohexane-1,4-diamine]	0.003 ± 0.001 µM	12%	10%	7%	0.027 µM	21%			
COC(=O)[C@H]1CC[C@H](Nc2ncc(C)c(-c3cnc4ccc(Nc5cncnc5)cn34)n2)CC1 [Compound 157, Methyl (1r,4r)-4-((5-methyl-4-(6-(pyrimidin-5-ylamino)imidazo[1,2-a]pyridin-3-yl)pyrimidin-2-yl)amino) cyclohexane-1-carboxylate]	2.4 ± 0.09 µM	90%	69%	38%	0.527 µM	32%			
CS(=O)(=O)N1CCC(Nc2ncc(F)c(-c3cnc4ccc(-c5ccccc5)cn34)n2)CC1 [Compound 147, 5-Fluoro-N-(1-(methylsulfonyl)piperidin-4-yl)-4-(6-phenylimidazo[1,2-a]pyridin-3-yl)pyrimidin-2-amine]	0.62 ± 0.26 µM	54%			0.711 µM	70%		0.334 µM	0.015 µM
Fc1cnc(NC2CCNCC2)nc1-c1cnc2ccc(-c3ccccc3)cn12 [Compound 143, 5-Fluoro-4-(6-phenylimidazo[1,2-a]pyridin-3-yl)-N-(piperidin-4-yl)pyrimidin-2-amine]	0.003 ± 0.001 µM		3%	4%	0.108 µM	4%	0.088 µM		
Cc1cnc(N[C@H]2CC[C@H](N)CC2)nc1-c1cnc2ccc(Nc3ccccn3)cn12 [Compound 128, (1r,4r)-N^1-(5-Methyl-4-(6-(pyridin-2-ylamino)imidazo [1,2-a]pyridin-3-yl)pyrimidin-2-yl)cyclohexane-1,4-diamine]	0.068 ± 0.006 µM	34%	45%		0.31 µM	38%			0.706 µM
Cc1cnc(N[C@H]2CC[C@H](C)CC2)nc1-c1cnc2ccc(Nc3cncnc3)cn12 [Compound 152, 3-(5-Methyl-2-(((1r,4r)-4-methylcyclohexyl)amino)pyrimidin-4-yl)-N-(pyrimidin-5-yl)imidazo[1,2-a]pyridin-6-amine]	2.86 ± 0.29 µM	55%	34%	5%	0.181 µM	20%			
Cc1cnc(NC2CCC(F)(F)CC2)nc1-c1cnc2ccc(-c3ccccc3)cn12 [Compound 155, N-(4,4-Difluorocyclohexyl)-5-methyl-4-(6-phenylimidazo [1,2-a]pyridin-3-yl)pyrimidin-2-amine]	7 ± 2.03 µM	99%	100%	100%	> 5 µM	96%			
